ChEMBL document CHEMBL1158878, “New phomopsolides from a Penicillium sp” (1997)

How the values were obtained:
Format in all cases: functional
Staphylococcus aureus [1] = experiment: Antimicrobial activity against Staphylococcus aureus at 50 ug by antimicrobial disk assay; settings: read-out: IZ
Staphylococcus aureus [2] = experiment: Antimicrobial activity against Staphylococcus aureus at 10 ug by antimicrobial disk assay; settings: read-out: IZ
Staphylococcus aureus [3] = experiment: Antimicrobial activity against Staphylococcus aureus at 100 ug by antimicrobial disk assay; settings: read-out: IZ
Staphylococcus aureus [4] = experiment: Antimicrobial activity against Staphylococcus aureus at 25 ug by antimicrobial disk assay; settings: read-out: IZ
Staphylococcus aureus [5] = experiment: Antimicrobial activity against Staphylococcus aureus at 10 units by antimicrobial disk assay
Staphylococcus aureus [6] = experiment: Antimicrobial activity against Staphylococcus aureus at 30 ug by antimicrobial disk assay; settings: read-out: IZ

Q: `C/C=C(\C)C(=O)O[C@H]1C=CC(=O)O[C@H]1CCC(=O)C(C)O` (some centres undefined) [6,7-DIHYDROPHOMOPSOLIDE A] was tested. Which zone of inhibition at 50 µg/disc (Staphylococcus aureus [1]) did it give?
A: 9 mm

Q: `CN[C@@H]1[C@H](O[C@H]2[C@H](O[C@H]3[C@H](O)[C@@H](O)[C@H](N=C(N)N)[C@@H](O)[C@@H]3N=C(N)N)O[C@@H](C)[C@]2(O)C=O)O[C@@H](CO)[C@H](O)[C@H]1O` [STREPTOMYCIN] was tested. Which zone of inhibition at 10 µg/disc (Staphylococcus aureus [2]) did it give?
A: 13 mm

Q: `C/C=C(\C)C(=O)O[C@H]1C=CC(=O)O[C@H]1CC[C@H](O)[C@H](C)O` [6,7-DIHYDROPHOMOPSOLIDE B] was tested. Which zone of inhibition at 100 µg/disc (Staphylococcus aureus [3]) did it give?
A: 10 mm

Q: How did the zone of inhibition at 25 µg/disc (Staphylococcus aureus [4]) turn out when `C/C=C(\C)C(=O)O[C@H]1C=CC(=O)O[C@H]1/C=C\C(=O)C(C)O` (some centres undefined) [PHOMOPSOLIDE A] was run?
A: 22 mm

Q: `C/C=C/C1=C(C)C(=O)C(C)(O)O1` (centres undefined) was tested. Which zone of inhibition at 100 µg/disc (Staphylococcus aureus [3]) did it give?
A: 9 mm

Q: For `C/C=C(\C)C(=O)O[C@H]1C=CC(=O)O[C@H]1/C=C/C(=O)C(C)O` (some centres undefined), which zone of inhibition at 25 µg/disc (Staphylococcus aureus [4]) is on record?
A: 22 mm

Q: How did the “inhibition zone (IZ)” value (Staphylococcus aureus [5]) turn out when `CC1(C)S[C@@H]2[C@H](NC(=O)Cc3ccccc3)C(=O)N2[C@H]1C(=O)O` [PENICILLIN G] was run?
A: 22 mm

Q: For `C/C=C(\C)C(=O)O[C@H]1C=CC(=O)O[C@H]1/C=C/[C@H](O)[C@H](C)O` [PHOMOPSOLIDE B], which zone of inhibition at 25 µg/disc (Staphylococcus aureus [4]) is on record?
A: 20 mm

Q: For `CN(C)[C@@H]1C(O)=C(C(N)=O)C(=O)[C@@]2(O)C(O)=C3C(=O)c4c(O)cccc4[C@@](C)(O)[C@H]3C[C@@H]12` [TETRACYCLINE], which zone of inhibition at 30 µg/disc (Staphylococcus aureus [6]) is on record?
A: 38 mm
